In PubChem BioAssay (NCI):
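Interpolation was linear, between the two tested concentrations surrounding the appropriate level; five concentrations were tested over 48 hours in 96-well plates. Abbreviation: GI50, concentration required for 50% inhibition of growth. At the TGI there is no net growth.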

Legend:
Test in all cases: NCI anticancer screen, dose series, 48 h; in the data active = GI50 below about 0.43 µM; inactive = the rest
HCC-2998 colon = system: HCC-2998 colon
T-47D breast = system: T-47D breast
OVCAR-4 ovarian = system: OVCAR-4 ovarian
MDA-MB-435 = system: MDA-MB-435
HT29 colon = system: HT29 colon
A498 renal = system: A498 renal
COLO 205 colon = system: COLO 205 colon
OVCAR-3 ovarian = system: OVCAR-3 ovarian
OVCAR-5 ovarian = system: OVCAR-5 ovarian
NCI-H226 lung = system: NCI-H226 lung
NCI-H522 lung = system: NCI-H522 lung
HL-60(TB) leukemia = system: HL-60(TB) leukemia
NCI-H23 lung = system: NCI-H23 lung
A549 NSCLC = system: A549 NSCLC
UACC-257 melanoma = system: UACC-257 melanoma
SK-MEL-28 melanoma = system: SK-MEL-28 melanoma
RPMI-8226 leukemia = system: RPMI-8226 leukemia
TK-10 renal = system: TK-10 renal
EKVX NSCLC = system: EKVX NSCLC
HS 578T breast = system: HS 578T breast
SNB-75 CNS = system: SNB-75 CNS
KM12 colon = system: KM12 colon
K-562 leukemia = system: K-562 leukemia
SK-MEL-2 melanoma = system: SK-MEL-2 melanoma
NCI-H460 lung = system: NCI-H460 lung
SK-OV-3 ovarian = system: SK-OV-3 ovarian
PC-3 prostate = system: PC-3 prostate
UO-31 renal = system: UO-31 renal
786-0 renal = system: 786-0 renal
U251 CNS = system: U251 CNS
SN12C renal = system: SN12C renal
HCT-15 colon = system: HCT-15 colon
M14 melanoma = system: M14 melanoma
MCF7 breast = system: MCF7 breast
SW-620 colon = system: SW-620 colon
SNB-19 CNS = system: SNB-19 CNS
MOLT-4 leukemia = system: MOLT-4 leukemia
UACC-62 melanoma = system: UACC-62 melanoma
HOP-92 NSCLC = system: HOP-92 NSCLC
HCT-116 colon = system: HCT-116 colon
BT-549 breast = system: BT-549 breast
ACHN renal = system: ACHN renal
CCRF-CEM leukemia = system: CCRF-CEM leukemia
RXF 393 renal = system: RXF 393 renal
SF-295 CNS = system: SF-295 CNS
SF-268 CNS = system: SF-268 CNS
MDA-MB-231 breast = system: MDA-MB-231 breast
IGROV1 ovarian = system: IGROV1 ovarian
CAKI-1 renal = system: CAKI-1 renal
NCI/ADR-RES ovarian = system: NCI/ADR-RES ovarian
SF-539 CNS = system: SF-539 CNS
HOP-62 NSCLC = system: HOP-62 NSCLC
OVCAR-8 ovarian = system: OVCAR-8 ovarian
SK-MEL-5 melanoma = system: SK-MEL-5 melanoma
MALME-3M melanoma = system: MALME-3M melanoma
LOX IMVI melanoma = system: LOX IMVI melanoma
DU-145 prostate = system: DU-145 prostate

Cc1ccc2c(C(C[N+](=O)[O-])c3ccco3)c(-c3ccccc3)[nH]c2c1 (centres undefined)
> 100 µM: TGI (HCC-2998 colon) | TGI (T-47D breast) | TGI (OVCAR-4 ovarian) | TGI (HT29 colon) | TGI (COLO 205 colon) | TGI (OVCAR-3 ovarian) | TGI (OVCAR-5 ovarian) | TGI (NCI-H226 lung) | TGI (NCI-H522 lung) | TGI (HL-60(TB) leukemia) | TGI (NCI-H23 lung) | TGI (A549 NSCLC) | TGI (UACC-257 melanoma) | TGI (SK-MEL-28 melanoma) | TGI (RPMI-8226 leukemia) | TGI (TK-10 renal) | TGI (EKVX NSCLC) | TGI (HS 578T breast) | TGI (KM12 colon) | TGI (K-562 leukemia) | TGI (SK-MEL-2 melanoma) | TGI (NCI-H460 lung) | TGI (SK-OV-3 ovarian) | TGI (PC-3 prostate) | TGI (UO-31 renal) | TGI (786-0 renal) | TGI (U251 CNS) | TGI (SN12C renal) | TGI (HCT-15 colon) | TGI (M14 melanoma) | TGI (MCF7 breast) | TGI (SW-620 colon) | TGI (SNB-19 CNS) | TGI (MOLT-4 leukemia) | TGI (UACC-62 melanoma) | TGI (HOP-92 NSCLC) | TGI (HCT-116 colon) | TGI (BT-549 breast) | TGI (ACHN renal) | TGI (CCRF-CEM leukemia) | TGI (RXF 393 renal) | TGI (SF-295 CNS) | TGI (SF-268 CNS) | TGI (MDA-MB-231 breast) | TGI (IGROV1 ovarian) | TGI (CAKI-1 renal) | TGI (NCI/ADR-RES ovarian) | TGI (SF-539 CNS) | TGI (HOP-62 NSCLC) | TGI (OVCAR-8 ovarian) | TGI (SK-MEL-5 melanoma) | TGI (MALME-3M melanoma) | TGI (LOX IMVI melanoma) | TGI (DU-145 prostate)
74.3 µM: TGI (A498 renal)
inactive: GI50 (HCC-2998 colon) > 100 µM | GI50 (T-47D breast) 23 µM | GI50 (OVCAR-4 ovarian) 69 µM | GI50 (MDA-MB-435) 3.04 µM | GI50 (HT29 colon) > 100 µM | GI50 (A498 renal) 4.02 µM | GI50 (COLO 205 colon) 31.7 µM | GI50 (OVCAR-3 ovarian) 22.8 µM | GI50 (OVCAR-5 ovarian) > 100 µM | GI50 (NCI-H226 lung) > 100 µM | GI50 (NCI-H522 lung) 3.92 µM | GI50 (HL-60(TB) leukemia) 28.3 µM | GI50 (NCI-H23 lung) 64.5 µM | GI50 (A549 NSCLC) 48.3 µM | GI50 (UACC-257 melanoma) > 100 µM | GI50 (SK-MEL-28 melanoma) 98.9 µM | GI50 (RPMI-8226 leukemia) 53.7 µM | GI50 (TK-10 renal) 12.3 µM | GI50 (EKVX NSCLC) 55 µM | GI50 (HS 578T breast) 17.5 µM | GI50 (SNB-75 CNS) 4.75 µM | GI50 (KM12 colon) 21.5 µM | GI50 (K-562 leukemia) 5.19 µM | GI50 (SK-MEL-2 melanoma) 38.2 µM | GI50 (NCI-H460 lung) 26.7 µM | GI50 (SK-OV-3 ovarian) 37.2 µM | GI50 (PC-3 prostate) 39.2 µM | GI50 (UO-31 renal) 33.1 µM | GI50 (786-0 renal) 41.3 µM | GI50 (U251 CNS) 46.2 µM | GI50 (SN12C renal) 47.8 µM | GI50 (HCT-15 colon) 7.28 µM | GI50 (M14 melanoma) 12.2 µM | GI50 (MCF7 breast) 9.09 µM | GI50 (SW-620 colon) 11.4 µM | GI50 (SNB-19 CNS) 59 µM | GI50 (MOLT-4 leukemia) 30.7 µM | GI50 (UACC-62 melanoma) 26.8 µM | GI50 (HOP-92 NSCLC) > 100 µM | GI50 (HCT-116 colon) 19.8 µM | GI50 (BT-549 breast) 48.8 µM | GI50 (ACHN renal) 41.4 µM | GI50 (CCRF-CEM leukemia) 34.1 µM | GI50 (RXF 393 renal) 32.2 µM | GI50 (SF-295 CNS) 21.9 µM | GI50 (SF-268 CNS) > 100 µM | GI50 (MDA-MB-231 breast) 27.1 µM | GI50 (IGROV1 ovarian) 24.6 µM | GI50 (CAKI-1 renal) 5.63 µM | GI50 (NCI/ADR-RES ovarian) 11.7 µM | GI50 (SF-539 CNS) 30.6 µM | GI50 (HOP-62 NSCLC) 16 µM | GI50 (OVCAR-8 ovarian) 84.8 µM | GI50 (SK-MEL-5 melanoma) 29.7 µM | GI50 (MALME-3M melanoma) 21.8 µM | GI50 (LOX IMVI melanoma) 44.2 µM | GI50 (DU-145 prostate) 74.4 µM
71 µM: TGI (SNB-75 CNS)
10.8 µM: TGI (MDA-MB-435)
